Test results: patent US8598163B2, “Derivatives of [1,3]Oxazin-2-one useful for the treatment of metabolic diseases such as lipid disorders” (Vitae Pharmaceuticals, Inc., priority 2009, dated 2013)

How the values were obtained:
11β-HSD1 [1] = target: T1, 11β-HSD1 (Homo sapiens (Human), UniProt P28845); conditions: comparator compounds; IC50 in Biological Test Example 4 divided by IC50 in Biological Test Example 1
Experimental: The assay began by dispensing 49 μl of microsome solution into 96-well polypropylene plates and adding 1 μl of the test compounds in DMSO, previously diluted in half-log increments (8 points) starting at 1.0 mM. […] The plates were incubated for 120 minutes at rt, and the reaction was quenched with the addition of 100 μl acetonitrile with 20 mM cortisone and 20 mM cortisol. After a ten minute incubation at rt, 100 μl of each well was filtered through a MultiScreen HTS, HV filter plate (Millipore) and diluted with 100 μl of reaction buffer without human plasma.

11β-HSD1 [2] = target: T1, 11β-HSD1; conditions: Biological Test 3, human liver microsomes, HTRF
Experimental: Briefly, compounds were incubated for 1 hour at 37° C. in Tris buffer (20 mM tris, 5 mM EDTA, pH 6.0) containing NADPH (200 μM) and cortisone (80 nM). Cortisol generated in the reaction is then detected with a competitive immunoassay, involving two HTRF conjugates: cortisol linked to XL665 and anti-cortisol antibody labeled with Europium cryptate. The incubation period for detection reaction was typically 2 hours. […] The ratio of the two emission signals was then calculated (Em665*10000/Em615). […] Each assay also contained a calibration curve with cortisol to transform the fluorescent data into cortisol concentrations. Percent inhibition of each compound was determined relative to the carbenoxolone signal.

T1 sequence (P28845 whole entry): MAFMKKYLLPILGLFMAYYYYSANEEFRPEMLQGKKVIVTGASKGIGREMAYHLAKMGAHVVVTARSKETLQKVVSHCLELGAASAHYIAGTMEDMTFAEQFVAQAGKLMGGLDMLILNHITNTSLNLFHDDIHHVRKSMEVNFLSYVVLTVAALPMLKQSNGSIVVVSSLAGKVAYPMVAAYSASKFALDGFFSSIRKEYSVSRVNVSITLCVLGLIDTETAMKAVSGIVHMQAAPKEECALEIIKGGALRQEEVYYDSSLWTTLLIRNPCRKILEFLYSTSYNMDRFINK

| SMILES | Shift (11β-HSD1 [1]) | IC50 (11β-HSD1 [2]) [nM] |
| --- | --- | --- |
| Cc1nc2cc(-c3ccc([C@H](C)N4CC[C@](CC(C)(C)O)(c5ccccc5)OC4=O)cc3)ccn2n1 [Example 7, (S)-6-(2-Hydroxy-2-methyl-propyl)-3-{(5)-1-[4-(2-methyl-[1,2,4]triazolopyridin-7-yl)-phenyl]-ethyl}-6-phenyl-[1,3]oxazinan-2-one] | 42.43 | 31 |
| COc1nc2ccc(-c3ccc([C@H](C)N4CC[C@](CC(C)(C)O)(c5ccccc5)OC4=O)cc3)cn2n1 [Example 9, (S)-6-(2-Hydroxy-2-methyl-propyl)-3-{(S)-1-[4-(2-methoxy-[1,2,4]triazolo[1,5-a]pyridin-6-yl)-phenyl]-ethyl}-6-phenyl-[1,3]oxazinan-2-one] | 21.45 | 54 |
